Patent US7671045B2, “17-phosphorous steroid derivatives useful as progesterone receptor modulators” (Janssen Pharmaceutica N.V., priority 2006, dated 2010)
Read-outs that look alike come from different tables or passages of the source.

Key:
[1] = system: T47D human breast cancer cells; assay: Alkaline phosphatase assay in human breast cancer cell line T47D; assay type: cell-based
Experimental: Alkaline Phosphatase Assay in Human Breast Cancer Cell Line T47D
T47D human breast cancer cells were grown in RPMI medium without phenol red (Invitrogen) containing 10% (v/v) heat-inactivated fetal bovine serum (FBS; Hyclone), 1% (v/v) penicillin-streptomycin (Invitrogen), 1% (w/v) glutamine (Invitrogen), and […] insulin (Sigma). Incubation conditions were 37° C. in a humidified 5% (v/v) carbon dioxide environment.
The cells were plated in 96-well tissue culture plates at 10,000 cells per well in assay medium [RPMI medium without phenol red (Invitrogen) containing 5% (v/v) charcoal-treated FBS (Hyclone) and 1% (v/v) penicillin-streptomycin (Invitrogen)]. Two days later, the medium was decanted and test compound or control were added at a final concentration of 0.1% (v/v) dimethyl sulfoxide in fresh assay medium. Twenty-four hours later, an alkaline phosphatase assay was performed using a SEAP kit (BD Biosciences Clontech, Palo Alto, Calif.). Briefly, the medium was decanted and the cells were fixed for 30 minutes at room temperature with 5% (v/v) formalin (Sigma). The cells were washed once with room temperature Hank's buffered saline solution (Invitrogen). Equal volumes (0.05 mL) of 1× Dilution Buffer, Assay Buffer and 1:20 substrate/enhancer mixture were then added. After 1 hour incubation at room temperature in the dark, the lysate was transferred to a white 96-well plate (Dynex) and luminescence was read using a LuminoSkan Ascent (Thermo Electron, Woburn, Mass.).

[2] = system: A549 Human lung carcinoma cells; assay: Transient transfection and Steady Glo luciferase assay in A549 cells with dexamethasone challenge; assay type: cell-based
Experimental: Transient Transfection and Steady Glo Luciferase Assay
A549 Human lung carcinoma cells were grown in F-12K Nutrient Mixture containing 10% (v/v) fetal bovine serum (FBS; Invitrogen), 2 mM glutamine and 0.15% […] (Invitrogen)
A549 cells were split 1 to 3 in 175 cm tissue culture flask. The cells were incubated at 37° C. in CO2 incubator until the cells were 95% confluent (typically 24-30 hours).
The following solutions were prepared in sterile tubes: (a) Solution A: 1.5 μg/ml of DNA in 8.5 ml OPTI-MEM I Reduced Serum Medium. (GIBCO cat# 31985) and (b) Solution B: 6 μl/ml of DMRIE-C Reagent into […] OPTI-MEM I. The two solutions were combined and mixed gently, then incubated at room temperature for 40 minutes.
The A549 cells prepared above were washed with […] of OPTI-MEM I. The medium was removed and 17 ml of the lipid-DNA complex solution was overlayed onto cells. The cells ere then incubated for 16 h at 37° C. in CO2 incubator. The DNA-containing medium was removed and 30 ml of growth medium was added. (5% Charcoal treated FBS) After 5-6 h, the cells were seeded in a 96 well plate and the cells incubated overnight at 37° C. in CO2 incubator.
To each well was then added 5 μl of test compounds and the cells incubated at 37° C. for 10 min. 5 μL of dexamathasone (CAS [50-02-2]), a glucocorticoid agonist, solution was then added to each well for challenger and the cells incubated at 37° C. in CO2 incubator for 24 h. 100 μl of Luc-assay buffer was then added into each cell well and the cells incubated for 30 min at room temperature. A 150 μL sample from each well was then transferred into a DYNEX Microlitel plate and read on Top-counter.

[3] = T47D cells, alkaline phosphatase readout, 24 h with test compound, read-out: T47D IC50
[4] = transfected A549 cells, luciferase readout, challenged with dexamethasone (glucocorticoid agonist), 24 h, read-out: A549 IC50
[5] = T47D, 24 h, read-out: T47D IC50 (nM)
[6] = A549, 24 h, read-out: A549 IC50 (nM)

CN(C)c1ccc([C@H]2C[C@@]3(C)[C@@H](CC[C@@]3(O)C#CP(=O)(c3ccccc3)c3ccccc3)[C@@H]3CCC4=CC(=O)CCC4=C32)cc1 [Compound 103]
IC50 [1, 3]: 1.57 nM | IC50 [2, 4]: 41.6 nM

CN(C)c1ccc([C@H]2C[C@@]3(C)[C@@H](CC[C@@]3(O)C#CP(=O)(N3CCOC3=O)N3OCCC3=O)[C@@H]3CCC4=CC(=O)CCC4=C32)cc1 (stereo partly drawn) [Compound 104]
IC50 [1, 3]: 7.25 nM | IC50 [2, 4]: 64 nM

COP(=S)(C#C[C@]1(O)CC[C@H]2[C@@H]3CCC4=CC(=O)CCC4=C3[C@@H](c3ccc(N(C)C)cc3)C[C@@]21C)OC [Compound 105]
IC50 [1, 5]: 1.44 nM | IC50 [2, 6]: 55.8 nM

CN(C)c1ccc([C@H]2C[C@@]3(C)[C@@H](CC[C@@]3(O)C#CP(=O)(N(C)C)N(C)C)[C@@H]3CCC4=CC(=O)CCC4=C32)cc1 [Compound 106]
IC50 [1, 3]: 7.53 nM | IC50 [2, 4]: 121 nM

CCOP(=O)(C#C[C@]1(O)CC[C@H]2[C@@H]3CCC4=CC(=O)CCC4=C3[C@@H](c3ccc(SC)cc3)C[C@@]21C)OCC [Compound 107]
IC50 [1, 5]: 4.75 nM | IC50 [2, 6]: 454 nM

CCOP(=O)(C#C[C@]1(O)CC[C@H]2[C@@H]3CCC4=CC(=O)CCC4=C3[C@@H](c3ccc(OC)cc3)C[C@@]21C)OCC [Compound 108]
IC50 [1, 5]: 6.9 nM | IC50 [2, 6]: 72.2 nM
